Reference: patent US8629178B2, “Sodium tanshinone IIA sulfonate hydrate and preparation method and use thereof” (priority 2009, dated 2014)

Experiments:
[1] = Hygroscopicity test; format: physicochemical; conditions: 25° C.; for Relative to 0 h, weight gain %: relative humidity 75%, sampling time 48 h
Excerpt: The hygroscopicity test performed according to the Pharmacopoeia of the People's Republic of China (2005 Edition) confirmed that the sodium tanshinone IIA sulfonate hydrate of the present invention is much lower than anhydrous sodium tanshinone IIA sulfonate.
Samples of sodium tanshinone IIA sulfonate hydrates and anhydrous sodium tanshinone IIA sulfonate: anhydrous sodium tanshinone IIA sulfonate and the hydrates of the present invention, about 5 g for each, were placed in dry watch glass with constant weight, precisely weighed, subjected to the test at 25° C. and a relative humidity (RH) of 75%, separately sampled at 0 h and 48 h of the test, and the percentages of weight gain due to hygroscopicity was calculated.

[2] = Accelerated stability test (increase of the relative substances by HPLC); format: physicochemical; conditions: RH75%, 30° C., lucifuge, sealed in ampoules, sampling time 6 month
Protocol: In addition, the accelerated stability test performed according to the Pharmacopoeia of the People's Republic of China (2005 Edition) confirmed that the sodium tanshinone IIA sulfonate hydrate crystal had better storage stability than anhydrous sodium tanshinone IIA sulfonate, and thus can be stably stored for a more longer period.
Under RH75%, 30° C. and lucifuge condition, the samples of sodium tanshinone IIA sulfonate hydrate crystals and anhydrous sodium tanshinone IIA sulfonate were separately sealed in ampoules for accelerated stability test, chromatographic conditions: column Kromasil C18 (250 mm×4.6 mm, 5 μm), mobile phase: methanol—0.02 mol/L potassium dihydrogen phosphate solution (adjusted with phosphoric acid to pH=4) (60:40), detection wavelength: 271 nm, flow rate: 1 ml/min, to measure increase extent of the relative substances (see results in Tables 1-2).

[3] = test system: calcium paradox cardiac muscle tissue; experiment: Protection effects on calcium paradox cardiac muscle (ex vivo heart perfusion, Langendorff); design: species or system guinea pigs; conditions: hydrates 32 mg/L, Iproveratril 2.1 mg/L; for Calcium uptake, x ± S μmol/min/g, dry weight: cardiac muscle tissue; for Calcium uptake, x ± S μmol/min/g, dry weight / Protein release, x ± S mg/min/g, dry weight: 8 guinea pigs per group; for Protein release, x ± S mg/min/g, dry weight: coronary artery effluent of 20 min after calcium restored; for Calcium uptake decrease rate, % / Protein release decrease rate, %: relative to calcium paradox group
Protocol: 48 Healthy guinea pigs, body weight 280-360 g, were divided into 6 groups, 8 guinea pigs per group, separately comprising: normal control group, calcium paradox group, iproveratril positive control group, 3 drug-administrated groups, the animals were fasted for one night before test, intraperitoneally injected with heparin 0.5 mg/kg, intraperitoneally injected with pentobarbital sodium 30 mg/kg after 20 min, their chests were opened after anesthesia, and hearts were taken out quickly, immersed in Kreb's-Henseleit (K-H) perfusion solution as cooled with ice, after aortic cannulation, the hearts were placed in ex vivo heart perfusion device with constant temperature and constant pressure. […] The effluent of coronary artery of 20 min when calcium-containing perfusion solution was restored was collected, the protein release amounts mg/min/g drywt and cardiac muscle tissue calcium uptake μmol/g drywt in the collected coronary artery effluents were measured according to the reference document.

[4] = test system: arrhythmia induced by calcium chloride in rats; experiment: Effects on arrhythmia induced by calcium chloride in rats; format: in vivo, SD rats; conditions: intravenous injection, 10 animals per group, 2.5% calcium chloride 100 mg/kg, hydrates 10 mg/kg, Quinidine 13.5 mg/kg
Protocol: 50 SD rats were provided, male and female, body weight 226±31 g, randomly divided into 5 groups, separately administered by intravenous injection with physiological saline, Quinidine, […] The rats were anaesthetized with 3% pentobarbital sodium 40 mg·kg^−1, fixed in supine position on operation table, injected via lingual vein for 6 minutes, quickly intravenously injected (completed injection in 5 s) with 2.5% calcium chloride 100 mg·kg^−1 (0.4 ml/100 g), the number of animal with ventricular fibrillation and the number of died animals were recorded.

[5] = test system: ischemic reperfusion brain tissues of rats; experiment: Effects on rat ischemic reperfusion (NO, NOS, MDA, SOD in brain tissue); format: in vivo, Wistar rats; conditions: for Result of the ischemic reperfusion test in words: compared with sodium tanshinone IIA sulfonate 1.5 hydrate
Protocol: 36 Male Wistar rats, body weight 250-300 g, were randomly divided into 3 groups: sham operation group, ischemic reperfusion group, and group of drug of the invention, 12 rats per group. As for group of drug of the invention: the rats were peritoneally administered with sodium tanshinone IIA sulfonate 1.5 hydrate in physiological saline, does of 40 mg/kg, twice per day, for consecutive 7 days, and subjected to cerebral ischemia operation 60 min after the last administration; the rats of sham operation group and ischemic reperfusion group were administered with the same volume of isometric physiological saline, respectively.
The rats were anesthetized with 10% chloral hydrate (3.5 ml/kg) by peritoneal injection, fixed in supine position, modeled by the improved Zea Longa thread occlusion method in document [Journal of Shanghai Jiaotong University (Medicine), 2007, 27(10):1218-1222]; in the sham operation group, thread was merely inserted 10 mm, and other steps were the same as the model group, animals appeared operation-side Horner syndrome and opposite-side movement disorder were deemed as successfully established models. After successful establishment of models, the animals were administered in the same dose as above twice per day, and the sham operation group and ischemic reperfusion group were administered with the same volume of isometric physiological saline, respectively. The thread was drawn out 2 h after model establishment, the rats were executed 24 h after reperfusion, their brains were taken out quickly and weighed. Physiological saline was used to prepare 10% brain tissue homogenate solution at low temperature, centrifuged at low temperature, 3000 r/min for 10 min, the deposit was discarded, the supernatant was taken up and tested to determine SOD, MDA, NO, NOS contents or activities according to the specifications of the corresponding commercial SOD, MDA, NO, NOS kits, the results are shown in Table 4.

[6] = rat brain tissue homogenate, 40 mg/kg peritoneally twice per day, 2 h ischemia, 24 h reperfusion

Row | Compound | Relative to 0 h, weight gain % [1] | Hygroscopicity in words ([1]; compared with the sodium tanshinone IIA sulfonate hydrates, RH 75%, 48 h) | Relative to 0 month, multiple of the relative substances [2] | Calcium uptake, x ± S μmol/min/g, dry weight [3] | Protein release, x ± S mg/min/g, dry weight [3] | Calcium uptake decrease rate, % [3] | Protein release decrease rate, % [3] | Arrhythmic animal number (n), Heart arrest [4] | Arrhythmic animal number (n), Ventricular fibrillation [4] | Result of the ischemic reperfusion test in words [5] | MDA [5, 6] | NO [5, 6] | NOS [5, 6] | SOD [5, 6]
1 | Cc1c(S(=O)(=O)[O-])oc2c1C(=O)C(=O)c1c-2ccc2c1CCCC2(C)C.[Na+] [Anhydrous Sodium Tanshinone IIA Sulfonate, reference compound] | 11.43% | much higher | 1.21 | – | – | – | – | – | – | – | – | – | – | –
2 | COc1ccc(CCN(C)CCCC(C#N)(c2ccc(OC)c(OC)c2)C(C)C)cc1OC (stereo not drawn) [Iproveratril, reference compound] | – | – | – | 36.9 ± 2.5 μmol/min/g, dry weight | 2.6 ± 0.2 mg/min/g, dry weight | 22.5% | 48% | – | – | – | – | – | – | –
3 | C=C[C@H]1C[N@@]2CC[C@H]1C[C@@H]2[C@@H](O)c1ccnc2ccc(OC)cc12 [Quinidine, reference compound] | – | – | – | – | – | – | – | 4 n | 6 n | – | – | – | – | –
4 | Sodium Tanshinone IIA Sulfonate 0.5 Hydrate | 7.96% | – | 0.34 | 34.5 ± 2.4 μmol/min/g, dry weight | 2.4 ± 0.2 mg/min/g, dry weight | 27.5% | 52% | 4 n | 5 n | results similar to those of the sodium tanshinone IIA sulfonate 1.5 hydrate | – | – | – | –
5 | Sodium Tanshinone IIA Sulfonate 1.5 Hydrate | 4.12% | – | 0.25 | 35.2 ± 2.8 μmol/min/g, dry weight | 2.4 ± 0.3 mg/min/g, dry weight | 26.1% | 52% | 6 n | 5 n | – | 2.26 ± 0.62 nmol/mL | 24 ± 6.35 µmol/L | 22 ± 5.31 U/ml | 245 ± 21.59 U/ml
6 | Sodium Tanshinone IIA Sulfonate 2.5 Hydrate | 1.25% | – | 0.31 | 35.4 ± 3.1 μmol/min/g, dry weight | 2.5 ± 0.2 mg/min/g, dry weight | 25.6% | 50% | 5 n | 6 n | results similar to those of the sodium tanshinone IIA sulfonate 1.5 hydrate | – | – | – | –
